Laboratory results published in PubChem BioAssay AID651762 (The Scripps Research Institute Molecular Screening Center, 2012).
The source made the active and inactive calls. How the calls were made is not given here.

Target: Mu-type opioid receptor (Homo sapiens) (UniProt P35372)
Assay: mu-delta opioid heterodimer formation enhancers – cell-based, luminescence, dose response, set 2, late-stage follow-up (AID 651762)
Conditions: luminescence complementation

Chain of Mu-type opioid receptor (Homo sapiens) (P35372 whole entry, looked up): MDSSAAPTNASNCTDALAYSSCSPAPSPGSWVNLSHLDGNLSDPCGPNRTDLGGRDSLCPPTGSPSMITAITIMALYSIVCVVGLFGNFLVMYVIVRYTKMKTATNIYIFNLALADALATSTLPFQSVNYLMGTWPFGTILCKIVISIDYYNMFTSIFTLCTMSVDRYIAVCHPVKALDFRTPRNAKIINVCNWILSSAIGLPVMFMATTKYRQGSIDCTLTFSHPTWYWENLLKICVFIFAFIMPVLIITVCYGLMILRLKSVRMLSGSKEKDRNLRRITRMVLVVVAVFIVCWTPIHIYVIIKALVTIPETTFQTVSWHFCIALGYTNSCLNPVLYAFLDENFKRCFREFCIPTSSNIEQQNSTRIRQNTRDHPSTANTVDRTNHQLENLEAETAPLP

| EC50 | Structure (SMILES) |
| --- | --- |
| > 50 µM (inactive) | CCOC(=O)C1(CCOC)CCCN(Cc2ccc(NC(C)=O)cc2)C1 (stereo not drawn) |
| 0.394 µM | CCOC(=O)C1(Cc2ccccc2Cl)CCN(Cc2ccc(NC(C)=O)cc2)CC1 |
| > 50 µM (inactive) | CCOC(=O)C1(Cc2ccccc2C)CCCN(Cc2ccc(NC(C)=O)cc2)C1 (stereo not drawn) |
| > 50 µM (inactive) | CCOC(=O)C1CCN(Cc2ccc(N(C)C)cc2)CC1 |
| > 50 µM (inactive) | CCOC(=O)C1CCN(CCC(=O)Nc2ccc(C)cc2)CC1 |
| > 50 µM (inactive) | CCOC(=O)C1(CC2CC2)CCN(Cc2ccc(NC(C)=O)cc2)CC1 |
| > 50 µM (inactive) | CCOC(=O)C1CCCCN1Cc1ccc(NC(C)=O)cc1 (stereo not drawn) |
| > 50 µM (inactive) | CCOC(=O)C1(CCOC)CCN(Cc2ccc(NC(C)=O)cc2)CC1 |
| > 50 µM (inactive) | CCOC(=O)C1CCN(Cc2ccc(NC(C)=O)cc2)CC1 |
| > 50 µM (inactive) | CCOC(=O)C1CCN(C(=O)c2ccc(N(C)C)cc2)CC1 |

More lines, now with the values behind:

| Structure (SMILES) | EC50 |
| --- | --- |
| C=Cc1ccc(C(=O)N2CCC(CCc3ccccc3)(C(=O)OCC)CC2)cc1 | > 50 µM (inactive) |
| CCOC(=O)C1(CCc2ccccc2)CCN(Cc2ccc(C(=O)OC)cc2)CC1 | > 50 µM (inactive) |
| CCOC(=O)C1(CCOc2ccccc2)CCCN(Cc2ccc(NC(C)=O)cc2)C1 (stereo not drawn) | > 50 µM (inactive) |
| CCOC(=O)C1(CCc2ccccc2)CCN(Cc2ccncc2)CC1 | > 50 µM (inactive) |
| CC(=O)Nc1ccc(CN2CCCC(CO)(CCc3ccccc3)C2)cc1 (stereo not drawn) | 5.16 µM |
| CCOC(=O)C1(CCc2ccccc2)CCN(Cc2ccc(O)cc2)CC1 | > 50 µM (inactive) |
| CCOC(=O)C1(CCc2ccccc2)CCN(Cc2ccc(C#CC(C)(C)O)cc2)CC1 | > 50 µM (inactive) |
| O=C(O)C1CCCCC1C(=O)Nc1ccc(CN2CCCCC2)cc1 (stereo not drawn) | > 50 µM (inactive) |
| CCOC(=O)C1(Cc2cccc(OC)c2)CCCN(Cc2ccc(NC(C)=O)cc2)C1 (stereo not drawn) | > 50 µM (inactive) |
| CCOC(=O)C1(CCc2ccccc2)CCN(Cc2ccc(OC)cc2)CC1 | 0.206 µM |
| CCOC(=O)C1(Cc2ccccc2)CCCN(Cc2ccc(NC(C)=O)cc2)C1 (stereo not drawn) | > 50 µM (inactive) |
| CCOC(=O)C1(CCc2ccccc2)CCN(Cc2c(O)cccc2OC)CC1 | 0.605 µM |
| CCOC(=O)C1(CCc2ccccc2)CCN(C(=O)Nc2ccc(C)cc2C)CC1 | > 50 µM (inactive) |
| CCOC(=O)C1(Cc2ccc(OC)cc2)CCN(C(=O)c2ccc(N(C)C)cc2)CC1 | > 50 µM (inactive) |
| CCOC(=O)C1(CC2CC2)CCN(C(=O)c2ccc(N3CCCCC3)cc2)CC1 | > 50 µM (inactive) |
| C=Cc1ccc(C(=O)N2CCC(CCCc3ccccc3)(C(=O)OCC)CC2)cc1 | > 50 µM (inactive) |
| CCOC(=O)C1(CCc2ccccc2)CCCN(Cc2ccc(N3CCNC3=O)cc2)C1 (stereo not drawn) | > 50 µM (inactive) |
| CCOC(=O)C1(CCOC)CCN(Cc2ccc(N(C)c3ccccc3)cc2)CC1 | > 50 µM (inactive) |
